The source of these data is patent US9232799B2, “N-[(het)arylethyl)] pyrazole(thio)carboxamides and their heterosubstituted analogues” (BAYER INTELLECTUAL PROPERTY GMBH, priority 2010, dated 2016).

Series [1] in a line: logP by HPLC on reversed-phase column (C 18), EEC Directive 79/831 Annex V.A8. In kind it is physicochemical. As for the experimental part:
In table 1, the logP values were determined in accordance with EEC Directive 79/831 Annex V.A8 by HPLC (High Performance Liquid Chromatography) on a reversed-phase column (C 18), using the method described below: Temperature: 40° C.; […]

The subject of another series is Alternaria solani. The series is described as follows: In vivo preventive test on Alternaria solani (tomato). As to conditions: 500 ppm of active ingredient, evaluated 7 days after inoculation. From the text: One day after this treatment, the plants are inoculated with an aqueous spore suspension of Alternaria solani.
A further series relates to Pyrenophora teres. As to the kind of experiment: In vivo preventive test on Pyrenophora teres (barley). As to conditions: 500 ppm of active ingredient, evaluated 7-9 days after inoculation. From the text: One day after this treatment, the plants are inoculated with an aqueous spore suspension of Pyrenophora teres.
Another series has as its system aflatoxines production. The series is described as follows: microbe, parasite or virus in culture. In kind it is cell-based, Aspergillus parasiticus. The note with it: 50 μM.
For a further series, the system named is Fusarium graminearum. The series is described as follows: microbe, parasite or virus in culture. The series is classed as cell-based. The note with it: 50 μM.

As a reminder, the logP is a log measure of how a compound divides between an organic and an aqueous phase. A high value points to a more lipophilic compound.

For `CC(C)C(CNC(=O)c1c(C(F)F)nn(C)c1F)c1ccc(Cl)cc1` (stereo not shown) [Example 60], the logP in series [1] is on record as 3.78. Moreover, the Efficacy in the series with Alternaria solani and in the series on Pyrenophora teres was 100% each time. The “% Inhibition of Aflatoxin at 50 μM” value with aflatoxines production is listed as 100%. The “% Inhibition of fungal growth at 50 μM” value with Fusarium graminearum was 96%.

Turning to `Cn1nc(C(F)F)c(C(=O)NCCc2c(Cl)cccc2Cl)c1Cl` [Example 118], the logP in series [1] was 3.21. Further, the Efficacy with Alternaria solani was 90%; in the series on Pyrenophora teres, 94%. Moreover, the “% Inhibition of Aflatoxin at 50 μM” value in the series with aflatoxines production is given as 100%. In addition, in the series on Fusarium graminearum, the “% Inhibition of fungal growth at 50 μM” value is 81%.

In turn, `CC(CNC(=O)c1c(C(F)F)nn(C)c1Cl)c1ccccc1Cl` (stereo not shown) [Example 40] yielded a logP in series [1] of 3.15. For the same molecule, the values for the Efficacy in the series on Alternaria solani and in the series on Pyrenophora teres were 100% and 94%, respectively. Moreover, the “% Inhibition of Aflatoxin at 50 μM” value with aflatoxines production was 99%. The “% Inhibition of fungal growth at 50 μM” value with Fusarium graminearum was found to be 78%.

`CC(CNC(=O)c1c(C(F)F)nn(C)c1F)c1ccc(Cl)cc1Cl` (stereo not shown) [Example 84] had a logP in series [1] of 3.46. For the same molecule, the Efficacy in the series on Alternaria solani is 95%; in the series on Pyrenophora teres, 100%. Also, in the series on aflatoxines production, the “% Inhibition of Aflatoxin at 50 μM” value is reported as 100%. For the same molecule, in the series on Fusarium graminearum, the “% Inhibition of fungal growth at 50 μM” value is given as 100%.

`CC(CNC(=O)c1c(C(F)F)nn(C)c1Cl)c1cccc(C(F)(F)F)c1` (stereo not shown) [Example 125] came in with a logP in series [1] of 3.35. Also, the Efficacy in the series on Alternaria solani stood at 95%; in the series with Pyrenophora teres, 100%. Besides, the “% Inhibition of Aflatoxin at 50 μM” value in the series on aflatoxines production is recorded as 99%. Moreover, the “% Inhibition of fungal growth at 50 μM” value in the series with Fusarium graminearum turned out to be 78%.

`CC(CN(C(=O)c1c(C(F)F)nn(C)c1Cl)C1CC1)c1ccccc1` (stereo not shown) [Example 14] returned a logP in series [1] of 3.31. Moreover, the Efficacy in the series on Alternaria solani and in the series with Pyrenophora teres was 100% each time. The “% Inhibition of Aflatoxin at 50 μM” value in the series with aflatoxines production amounted to 100%. Also, the “% Inhibition of fungal growth at 50 μM” value with Fusarium graminearum is listed as 100%.

Molecule `CN(CCc1ccccc1C(F)(F)F)C(=O)c1c(C(F)F)nn(C)c1Cl` [Example 124] had a log partition coefficient (logP) in series [1] of 3.13. Besides, the results for the Efficacy with Alternaria solani and in the series on Pyrenophora teres were 100% and 95%, respectively. Further, in the series on aflatoxines production, the “% Inhibition of Aflatoxin at 50 μM” value is reported as 100%. Also, in the series with Fusarium graminearum, the “% Inhibition of fungal growth at 50 μM” value is recorded as 87%.

In turn, `Cn1nc(C(F)F)c(C(=O)NCCc2c(Cl)cccc2Cl)c1F` [Example 117] gave a logP in series [1] of 3.00. For the same molecule, the Efficacy in the series on Alternaria solani is reported as 95%; in the series on Pyrenophora teres it was 100%. Also, the “% Inhibition of Aflatoxin at 50 μM” value with aflatoxines production is recorded as 100%. For the same molecule, the “% Inhibition of fungal growth at 50 μM” value with Fusarium graminearum is 100%.

Regarding `CC(C)C(CNC(=O)c1c(C(F)F)nn(C)c1Cl)c1ccc(Cl)cc1` (stereo not shown) [Example 59], the logP in series [1] worked out at 3.94. Besides, the Efficacy in the series with Alternaria solani and in the series on Pyrenophora teres was 100% throughout. Besides, the “% Inhibition of Aflatoxin at 50 μM” value in the series with aflatoxines production is 100%. Further, the “% Inhibition of fungal growth at 50 μM” value in the series on Fusarium graminearum turned out to be 83%.

As for `CC(CNC(=O)c1c(C(F)F)nn(C)c1Cl)c1cccc(Cl)c1` (stereo not shown) [Example 52], the logP in series [1] is recorded as 3.21. For the same molecule, the Efficacy in the series on Alternaria solani and in the series with Pyrenophora teres was 100% in each case. Also, the “% Inhibition of Aflatoxin at 50 μM” value in the series on aflatoxines production came out at 100%. The “% Inhibition of fungal growth at 50 μM” value with Fusarium graminearum amounted to 83%.

In turn, `CC(CNC(=O)c1c(C(F)F)nn(C)c1F)c1cc(Cl)cc(Cl)c1` (stereo not shown) [Example 111] came in with a logP in series [1] of 3.55. In addition, the Efficacy with Alternaria solani turned out to be 95%; in the series on Pyrenophora teres, 100%. The “% Inhibition of Aflatoxin at 50 μM” value with aflatoxines production stood at 100%. Moreover, the “% Inhibition of fungal growth at 50 μM” value in the series on Fusarium graminearum was 96%.

In turn, `Cn1nc(C(F)F)c(C(=O)NCCc2ccccc2Cl)c1Cl` [Example 34] returned a logP in series [1] of 2.88. The Efficacy with Alternaria solani and with Pyrenophora teres was 100% each time. In the series on aflatoxines production, the “% Inhibition of Aflatoxin at 50 μM” value is on record as 100%. Further, in the series on Fusarium graminearum, the “% Inhibition of fungal growth at 50 μM” value is recorded as 84%.

In turn, `Cn1nc(C(F)F)c(C(=O)NC[Si](C)(C)c2cccc(Cl)c2)c1F` [Example 237] yielded a logP in series [1] of 3.55. For the same molecule, the Efficacy in the series on Alternaria solani and in the series on Pyrenophora teres was 100% throughout. Moreover, the “% Inhibition of Aflatoxin at 50 μM” value in the series on aflatoxines production was 100%. Also, the “% Inhibition of fungal growth at 50 μM” value with Fusarium graminearum is listed as 100%.

`CC(CNC(=O)c1c(C(F)F)nn(C)c1Cl)c1c(F)cccc1F` (stereo not shown) [Example 29]: the logP in series [1] is given as 2.92. For the same molecule, the Efficacy with Alternaria solani and in the series on Pyrenophora teres was 100% throughout. The “% Inhibition of Aflatoxin at 50 μM” value in the series with aflatoxines production was found to be 100%. Also, the “% Inhibition of fungal growth at 50 μM” value in the series with Fusarium graminearum came to 82%.

With `Cn1nc(C(F)F)c(C(=O)NCC(c2cccs2)C(F)(F)F)c1Cl` (stereo not shown) [Example 162], the logP in series [1] is listed as 2.92. The Efficacy came to 100% with Alternaria solani and 95% in the series on Pyrenophora teres. The “% Inhibition of Aflatoxin at 50 μM” value in the series with aflatoxines production came to 98%. In addition, the “% Inhibition of fungal growth at 50 μM” value in the series with Fusarium graminearum amounted to 80%.

The molecule `Cc1ccsc1CCNC(=O)c1c(C(F)F)nn(C)c1F` [Example 164] displayed a logP in series [1] of 2.49. Besides, the Efficacy with Alternaria solani is recorded as 95%; with Pyrenophora teres it was 100%. In addition, the “% Inhibition of Aflatoxin at 50 μM” value in the series with aflatoxines production amounted to 100%. Moreover, the “% Inhibition of fungal growth at 50 μM” value in the series with Fusarium graminearum stood at 95%.

In turn, `CC(CNC(=O)c1c(C(F)F)nn(C)c1F)c1cccc(C(F)(F)F)c1` (stereo not shown) [Example 126] returned a logP in series [1] of 3.23. For the same molecule, the values for the Efficacy with Alternaria solani and in the series with Pyrenophora teres were 90% and 100%, respectively. Also, the “% Inhibition of Aflatoxin at 50 μM” value with aflatoxines production worked out at 100%. Further, in the series on Fusarium graminearum, the “% Inhibition of fungal growth at 50 μM” value came to 98%.

Turning to `CC(CNC(=O)c1c(C(F)F)nn(C)c1F)c1cc(Cl)ccc1Cl` (stereo not shown) [Example 97], the logP in series [1] was 3.35. In addition, the Efficacy is recorded as 95% in the series on Alternaria solani and 100% in the series on Pyrenophora teres. In addition, the “% Inhibition of Aflatoxin at 50 μM” value in the series on aflatoxines production is listed as 100%. Also, the “% Inhibition of fungal growth at 50 μM” value with Fusarium graminearum is 100%.

In series [1], `Cn1nc(C(F)F)c(C(=O)NC[Si](C)(C)c2ccccc2)c1F` [Example 228] came in with a logP of 3.13. In addition, the Efficacy in the series with Alternaria solani and in the series on Pyrenophora teres was 100% in each case. Also, the “% Inhibition of Aflatoxin at 50 μM” value with aflatoxines production worked out at 100%. Besides, the “% Inhibition of fungal growth at 50 μM” value with Fusarium graminearum is 93%.

Turning to `Cn1nc(C(F)F)c(C(=O)N(CCc2ccccc2)C2CC2)c1Cl` [Example 12], in series [1], the logP came out at 3.06. Also, the Efficacy with Alternaria solani and with Pyrenophora teres was 100% throughout. In the series on aflatoxines production, the “% Inhibition of Aflatoxin at 50 μM” value was 100%. Further, in the series with Fusarium graminearum, the “% Inhibition of fungal growth at 50 μM” value turned out to be 92%.

Turning to `Cc1cccnc1CC(NC(=O)c1c(C(F)F)nn(C)c1F)C(F)(F)F` (stereo not shown) [Example 185], in series [1], the logP is 1.52. The Efficacy in the series on Alternaria solani is 95%; in the series on Pyrenophora teres, 94%. The “% Inhibition of Aflatoxin at 50 μM” value with aflatoxines production amounted to 100%. In the series with Fusarium graminearum, the “% Inhibition of fungal growth at 50 μM” value came out at 87%.

In the case of `Cn1nc(C(F)F)c(C(=O)NC[Si](C)(C)c2ccccc2)c1Cl` [Example 227], in series [1], the logP came to 3.31. Moreover, the Efficacy in the series with Alternaria solani was determined as 95%; with Pyrenophora teres it was 100%. For the same molecule, the “% Inhibition of Aflatoxin at 50 μM” value in the series with aflatoxines production came out at 87%. For the same molecule, the “% Inhibition of fungal growth at 50 μM” value with Fusarium graminearum amounted to 71%.

Molecule `Cn1nc(C(F)F)c(C(=O)NCCc2cc(Cl)ccc2Cl)c1Cl` [Example 91] showed a logP in series [1] of 3.29. For the same molecule, the results for the Efficacy in the series with Alternaria solani and in the series on Pyrenophora teres were 95% and 100%, respectively. The “% Inhibition of Aflatoxin at 50 μM” value in the series on aflatoxines production is recorded as 100%. Besides, the “% Inhibition of fungal growth at 50 μM” value with Fusarium graminearum was found to be 100%.
